Read-outs that look alike come from different tables or passages of the source.
Experiments:
[1] = tested on: glycerol; test: Glycerol-Glo assay of glycerol (byproduct of fat breakdown) in stored human milk; type: biochemical
Method: Eight human milk samples were tested to determine if glycerol, a byproduct of fat breakdown, accumulated after storage. Human milk samples were collected from the same donor anywhere between 1 month and 7 months after birth, frozen, and then thawed for testing. The samples were frozen on the same day as collection. […] The samples were thawed, and the presence of glycerol was detected by a glycerol-dependent, light-producing reaction presented as a measure of bioluminescence using the Glycerol-Glo™ Assay (Promega; catalog #: J3150) according to the manufacturer's instructions. A buffer with either 0 μM glycerol or 100 μM glycerol, alongside organic whole milk (cow) was used as a control. Glycerol content (bioluminescence) was measured using a BioTek Synergy Neo2 Hybrid Multimode Reader (Agilent; catalog #: BTNE02).

[2] = tested on: lipase; test: Lipase/lipolysis assay (EnzChek Lipase Substrate, quenched BODIPY-fatty acid conjugate) on stored human milk; details: for Lipolysis: 5 ounces unpasteurized human milk, frozen −20° C. 1 week
[3] = Total Antioxidant Capacity Assay Kit on stored human milk
Method: The compounds in Table 7 were added to fresh human milk and the samples were stored for 1 week at −20° C. […] Additionally, select compounds were tested for total Antioxidant capacity using the Total Antioxidant Capacity: Total Antioxidant Capacity Assay Kit (Abcam; catalog #: ab65329) in accordance with the manufacturer's instructions and presented as a relative ratio compared to fresh human milk. […] Lipase was considered inhibited with a RFU <400, glycerol was considered inhibited with an RLU <150,000, and total antioxidant capacity considered maintained with a ratio >0.75. Results presented in Table 7 represent a dose of 500 μg/mL for vitamin C, E and the carbonate/bicarbonates. All other compounds are at 20 mg/mL. Additionally, all compounds were tested for lipase and antioxidant capacity at multiple dilutions.

[4] = Table 7, 500 μg/mL, relative ratio compared to fresh human milk, maintained if >0.75

Compound	Glycerol (RLU) [1]	Lipase (RFU) [2]	also measured
O.O=C[C@H](O)[C@@H](O)[C@@H](O)[C@H](O)C(=O)O [D-(+)-Galacturonic acid monohydrate]	71322 RLU	324.895 RFU	–
O=C(O)[C@H]1O[C@H](O[C@@H]2[C@H](O)[C@@H](O)[C@@H](O)O[C@@H]2C(=O)O)[C@H](O)[C@@H](O)[C@H]1O [Digalacturonic acid]	61741 RLU	264.075 RFU	–
O=C(O)[C@H]1O[C@H](O[C@@H]2[C@H](O)[C@@H](O)[C@@H](O[C@@H]3[C@H](O)[C@@H](O)C(O)O[C@@H]3C(=O)O)O[C@@H]2C(=O)O)[C@H](O)[C@@H](O)[C@H]1O (stereo partly drawn) [Trigalacturonic acid]	61363 RLU	352.972 RFU	–
O=C1O[C@H]([C@@H](O)CO)C(O)=C1O [Vitamin C, ascorbic acid]	–	–	Total Antioxidant Capacity [3, 4]: 2
Guar gum	744165 RLU	–	Total Antioxidant Capacity [3]: 0.59
Gum arabic	329275 RLU	744.000 RFU	Total Antioxidant Capacity [3]: 0.64
Lambda carageenan	140894 RLU	432.920 RFU	–
Locust bean gum	435487 RLU	1054.203 RFU	Total Antioxidant Capacity [3]: 0.55
Pectin	–	–	Total Antioxidant Capacity ([3]; Subject 1, 5 ounces unpasteurized human milk, frozen −20° C. 1 week, measure of absorbance): 0.204; Total Antioxidant Capacity ([3]; Subject 2, 5 ounces unpasteurized human milk, frozen −20° C. 1 week, measure of absorbance): 0.264; Total Antioxidant Capacity ([3]; Subject 3, 5 ounces unpasteurized human milk, frozen −20° C. 1 week, measure of absorbance): 0.364; Lipolysis ([2]; Subject 1): 209; Lipolysis ([2]; Subject 2): 525; Lipolysis ([2]; Subject 3): 280
Perfected guar gum	838585 RLU	1061.697 RFU	Total Antioxidant Capacity [3]: 0.72
Poly-D-galacturonic acid methyl ester (apple)	643757 RLU	611.342 RFU	–
Poly-D-galacturonic acid methyl ester (citrus)	122743 RLU	320.660 RFU	–
Polygalacturonic acid	120477 RLU	398.125 RFU	–
Triton X-100 [reference compound]	145670 RLU	370.282 RFU	–
Tween 80	113807 RLU	–	Effect on glycerol production (in words) [1]: reduced lipase and glycerol production; Effect on lipase / lipolysis (in words) [2]: reduced lipase and glycerol production; Hit in lipase inhibition screen (in words) [2]: significantly inhibited lipase activity
tocopherol [Vitamin E]	–	–	Total Antioxidant Capacity [3, 4]: 2

— patent publication US12507703B2, “Methods, devices and compositions for preserving human milk” (The Trustees of Princeton University, priority 2023, dated 2025)
